Measurements from ChEMBL document CHEMBL3217611, “Synthesis, cytotoxicity and hDHFR inhibition studies of 2H-pyrido[1,2-a]pyrimidin-2-ones” (Medchemcomm, 2013).

Key:
[1] = test system: A549; assay: Cytotoxicity against human A549 cells after 24 hrs by MTT assay; assay type: functional, cell-based; settings: A549, 24 h
[2] = test system: HeLa; assay: cells; settings: Homo sapiens, 24 h
Description: Cytotoxicity against human HeLa cells after 24 hrs by MTT assay

[3] = test system: MCF7; assay: Cytotoxicity against human MCF7 cells after 24 hrs by MTT assay; assay type: functional, cell-based; settings: MCF7, 24 h
[4] = test system: SK-N-SH; assay: Cytotoxicity against human SK-N-SH cells after 24 hrs by MTT assay; assay type: functional, cell-based
[5] = test system: HepG2; assay: cells; settings: Homo sapiens, HepG2, 24 h
Description: Cytotoxicity against human HepG2 cells after 24 hrs by MTT assay

[6] = biological target: T1, Dihydrofolate reductase (Homo sapiens, UniProt P00374); assay: Inhibition of human DHFR assessed as depletion of NADPH after 30 secs shaking by spectrophotometry
T1 sequence (P00374 whole entry): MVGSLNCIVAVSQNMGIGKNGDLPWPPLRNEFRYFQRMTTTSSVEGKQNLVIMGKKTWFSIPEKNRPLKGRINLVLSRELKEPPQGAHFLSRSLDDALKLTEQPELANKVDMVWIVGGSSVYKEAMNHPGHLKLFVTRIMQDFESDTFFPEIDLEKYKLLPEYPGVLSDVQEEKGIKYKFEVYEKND

| SMILES | IC50 [1] | IC50 [2] | IC50 [3] | IC50 [4] | IC50 [5] | IC50 [6] |
| --- | --- | --- | --- | --- | --- | --- |
| O=c1nc2ccccn2cc1Cc1ccccc1 | 104 µM | > 1000 µM | 75.4 µM | 95.4 µM | > 1000 µM |  |
| O=c1nc2ccc(Cl)cn2cc1Cc1ccc(F)cc1 | 98.3 µM | > 1000 µM | 10.4 µM | 9.86 µM | > 1000 µM |  |
| O=c1nc2ccc(Br)cn2cc1Cc1ccc(Cl)cc1 | 105 µM | > 1000 µM | > 1000 µM | 0.94 µM | > 1000 µM |  |
| O=c1nc2ccc(Br)cn2cc1Cc1ccc(Br)cc1 | 102 µM | 931 µM | 97.2 µM | 0.87 µM | > 1000 µM |  |
| Cc1ccc(Cc2cn3cc(Cl)ccc3nc2=O)cc1 | > 1000 µM | > 1000 µM | > 1000 µM | 0.86 µM | > 1000 µM |  |
| COc1ccc(Cc2cn3cc(Br)ccc3nc2=O)cc1 | > 1000 µM | 928 µM | > 1000 µM | 0.94 µM | > 1000 µM |  |
| O=c1nc2ccc(Cl)cn2cc1Cc1ccc([N+](=O)[O-])cc1 | > 1000 µM | 928 µM | > 1000 µM | 0.94 µM | > 1000 µM |  |
| O=c1nc2ccc(Cl)cn2cc1Cc1ccc(Oc2nc(Cl)c(Cl)cc2Cl)cc1 | > 1000 µM | > 1000 µM | 96.9 µM | 8.69 µM | 992 µM |  |
| O=c1nc2ccc(Br)cn2cc1Cc1cccc(Oc2nc(Cl)c(Cl)cc2Cl)c1 | > 1000 µM | > 1000 µM | 9.77 µM | 9.24 µM | > 1000 µM | 2.73 µM |
| O=c1nc2ccccn2cc1Cc1ccc(F)cc1C(F)(F)F | > 1000 µM | 88 µM | 9.87 µM | 8.69 µM | 804 µM | 3.1 µM |
| O=c1nc2ccccn2cc1Cc1ccc(Br)cc1 | > 1000 µM | > 1000 µM | 157 µM | 163 µM | > 1000 µM |  |
| O=c1nc2ccc(Br)cn2cc1Cc1ccccc1 | > 1000 µM | 152 µM | > 1000 µM | 137 µM | > 1000 µM |  |
| O=c1nc2ccc(Cl)cn2cc1Cc1ccc(F)cc1C(F)(F)F | > 1000 µM | > 1000 µM | 181 µM | 106 µM | > 1000 µM |  |
| O=c1nc2ccccn2cc1Cc1ccc(F)cc1 | > 1000 µM | 139 µM | 200 µM | 125 µM | > 1000 µM |  |
| Nc1cccn2cc(Cc3ccccc3)c(=O)nc12 | 98 µM | 112 µM | 105 µM | 116 µM | 131 µM | 8.72 µM |
| Nc1cc(Br)cn2cc(Cc3ccccc3)c(=O)nc12 | > 1000 µM | > 1000 µM | > 1000 µM | 149 µM | > 1000 µM |  |
| Nc1cccn2cc(Cc3ccc(F)cc3)c(=O)nc12 | > 1000 µM | > 1000 µM | 135 µM | 126 µM | > 1000 µM |  |
| Nc1cc(Br)cn2cc(Cc3ccc(F)cc3C(F)(F)F)c(=O)nc12 | > 1000 µM | > 1000 µM | 151 µM | 133 µM | > 1000 µM |  |
| CC1(C)OC2O[C@@H](Cc3cn4ccccc4nc3=O)C(OCc3ccccc3)C2O1 (stereo partly specified) | 199 µM | > 1000 µM | > 1000 µM | > 1000 µM | > 1000 µM |  |
| CC1(C)OC2O[C@@H](Cc3cn4cc(Cl)ccc4nc3=O)C(OCc3ccccc3)C2O1 (stereo partly specified) | 182 µM | > 1000 µM | > 1000 µM | > 1000 µM | > 1000 µM |  |
| O=C1N=C2C=CC=CN2CC1C(O)c1cccs1 (stereo unspecified) | 248 µM | 166 µM | 166 µM | > 1000 µM | > 1000 µM |  |
| O=c1nc2ccccn2cc1Cc1cccc(Oc2ccccc2)c1 | > 1000 µM | > 1000 µM | 243 µM | 141 µM | > 1000 µM |  |
| COc1cccc2c1C(=O)c1c(O)c3c(c(O)c1C2=O)C[C@@](O)(C(=O)CO)C[C@@H]3O[C@H]1C[C@H](N)[C@H](O)[C@H](C)O1 [DOXORUBICIN] | 10.6 µM | 1.12 µM |  | 10.9 µM |  |  |
